Source: ChEMBL document CHEMBL3352654, “Synthesis, biological evaluation and SAR analysis of O-alkylated analogs of quercetin for anticancer” (Bioorg Med Chem Lett, 2014)
pIC50: −log10 of the molar value.

Experiments:
Format in all cases: functional, cell-based
[1] = test system: A549; test: Anticancer activity against human A549 cells by HTS assay
[2] = test system: NCI-H157; test: Anticancer activity against human NCI-H157 cells by HTS assay
[3] = Anticancer activity against human H460 cells by HTS assay; details: NCI-H460
[4] = test system: NCI-H1792; test: Anticancer activity against human NCI-H1792 cells by HTS assay
[5] = Anticancer activity against human NCI-H1944 cells by HTS assay
[6] = Anticancer activity against human […] cells by HTS assay
[7] = test system: NCI-H522; test: Anticancer activity against human NCI-H522 cells by HTS assay
[8] = test system: HOP-62; test: Anticancer activity against human HOP62 cells by HTS assay
[9] = Anticancer activity against human H1299 cells by HTS assay; details: NCI-H1299
[10] = Anticancer activity against human 292G cells by HTS assay
[11] = Anticancer activity against human Calu1 cells by HTS assay; details: Calu-1
[12] = Anticancer activity against human M4E cells by HTS assay
[13] = Anticancer activity against human LOXIMVI cells by HTS assay; details: LOX IMVI
[14] = test system: M14; test: Anticancer activity against human M14 cells by HTS assay
[15] = Anticancer activity against human SKBR cells by HTS assay
[16] = test system: HeLa; test: Anticancer activity against human HeLa cells by HTS assay

**Q.** What does the source list for CCCOc1cc(O)c2c(=O)c(OCCC)c(-c3ccc(O)c(O)c3)oc2c1?
**A.** pIC50 [1]: 4.58; pIC50 [2]: 4.39; pIC50 [3]: 4.51; pIC50 [4]: 4.51; pIC50 [5]: < 4.30; pIC50 [6]: < 4.30; pIC50 [7]: < 4.30; pIC50 [8]: 4.33; pIC50 [9]: < 4.30; pIC50 [10]: < 4.30; pIC50 [11]: 4.50; pIC50 [12]: < 4.30; pIC50 [13]: < 4.30; pIC50 [14]: < 4.30; pIC50 [15]: 4.46; pIC50 [16]: 4.33

**Q.** With CCCOc1cc(O)c2c(=O)c(OCCC)c(-c3ccc(OCCC)c(OCCC)c3)oc2c1 as the compound, how does the pIC50 [1] read?
**A.** 4.32

**Q.** What about the pIC50 [2] of the same compound?
**A.** < 4.30

**Q.** And the pIC50 [3]?
**A.** < 4.30

**Q.** What about the pIC50 [4] of the same compound?
**A.** < 4.30

**Q.** What about the pIC50 [5] of the same compound?
**A.** < 4.30

**Q.** What about the pIC50 [6] of the same compound?
**A.** < 4.30

**Q.** And the pIC50 [7]?
**A.** < 4.30

**Q.** What about the pIC50 [8] of the same compound?
**A.** < 4.30

**Q.** And the pIC50 [9]?
**A.** < 4.30

**Q.** What about the pIC50 [10] of the same compound?
**A.** < 4.30

**Q.** What about the pIC50 [11] of the same compound?
**A.** < 4.30

**Q.** What about the pIC50 [12] of the same compound?
**A.** < 4.30

**Q.** What about the pIC50 [13] of the same compound?
**A.** < 4.30

**Q.** What about the pIC50 [14] of the same compound?
**A.** < 4.30

**Q.** And the pIC50 [15]?
**A.** < 4.30

**Q.** What about the pIC50 [16] of the same compound?
**A.** < 4.30

**Q.** What does the source list for CCCOc1cc(O)c2c(=O)c(O)c(-c3ccc(OCCC)c(O)c3)oc2c1?
**A.** pIC50 [1]: 5.40; pIC50 [2]: 6.08; pIC50 [3]: 5.94; pIC50 [4]: 5.44; pIC50 [5]: 5.35; pIC50 [6]: 5.25; pIC50 [7]: 5.09; pIC50 [8]: 5.48; pIC50 [9]: 5.32; pIC50 [10]: 5.27; pIC50 [11]: 5.03; pIC50 [12]: 5.24; pIC50 [13]: 5.43; pIC50 [14]: 5.12; pIC50 [15]: 5.33; pIC50 [16]: 5.29

**Q.** Which results are given for COc1cc(O)c2c(=O)c(O)c(-c3ccc(OC)c(O)c3)oc2c1 [OMBUINE]?
**A.** pIC50 [1]: 5.51; pIC50 [2]: 5.46; pIC50 [3]: 5.56; pIC50 [4]: 5.47; pIC50 [5]: 5.54; pIC50 [6]: < 4.30; pIC50 [7]: 4.76; pIC50 [8]: 4.92; pIC50 [9]: 4.46; pIC50 [10]: 4.39; pIC50 [11]: < 4.30; pIC50 [12]: 4.51; pIC50 [13]: < 4.30; pIC50 [14]: 5.37; pIC50 [15]: 5.08; pIC50 [16]: 5.83

**Q.** With CCCCOc1cc(O)c2c(=O)c(OCCCC)c(-c3ccc(OCCCC)c(OCCCC)c3)oc2c1 as the compound, how does the pIC50 [1] read?
**A.** 4.31

**Q.** And the pIC50 [2]?
**A.** < 4.30

**Q.** And the pIC50 [3]?
**A.** < 4.30

**Q.** And the pIC50 [4]?
**A.** < 4.30

**Q.** And the pIC50 [5]?
**A.** < 4.30

**Q.** What about the pIC50 [6] of the same compound?
**A.** < 4.30

**Q.** And the pIC50 [7]?
**A.** < 4.30

**Q.** And the pIC50 [8]?
**A.** < 4.30

**Q.** What about the pIC50 [9] of the same compound?
**A.** < 4.30

**Q.** And the pIC50 [10]?
**A.** < 4.30

**Q.** And the pIC50 [11]?
**A.** < 4.30

**Q.** What about the pIC50 [12] of the same compound?
**A.** < 4.30

**Q.** What about the pIC50 [13] of the same compound?
**A.** < 4.30

**Q.** What about the pIC50 [14] of the same compound?
**A.** < 4.30

**Q.** And the pIC50 [15]?
**A.** < 4.30

**Q.** And the pIC50 [16]?
**A.** < 4.30

**Q.** With COc1c(-c2ccc(O)c(O)c2)oc2cc(O)cc(O)c2c1=O [3-O-METHYLQUERCETIN] as the compound, how does the pIC50 [1] read?
**A.** 5.09

**Q.** What about the pIC50 [2] of the same compound?
**A.** 4.73

**Q.** And the pIC50 [3]?
**A.** 5.00

**Q.** And the pIC50 [4]?
**A.** 4.62

**Q.** What about the pIC50 [5] of the same compound?
**A.** 4.63

**Q.** What about the pIC50 [6] of the same compound?
**A.** < 4.30

**Q.** What about the pIC50 [7] of the same compound?
**A.** < 4.30

**Q.** What about the pIC50 [8] of the same compound?
**A.** 4.45

**Q.** What about the pIC50 [9] of the same compound?
**A.** 4.33

**Q.** What about the pIC50 [10] of the same compound?
**A.** 4.31

**Q.** And the pIC50 [11]?
**A.** < 4.30

**Q.** What about the pIC50 [12] of the same compound?
**A.** 4.41

**Q.** What about the pIC50 [13] of the same compound?
**A.** < 4.30

**Q.** And the pIC50 [14]?
**A.** < 4.30

**Q.** And the pIC50 [15]?
**A.** 4.86

**Q.** And the pIC50 [16]?
**A.** 5.22

**Q.** What does the source list for CCOc1ccc(-c2oc3cc(O)cc(O)c3c(=O)c2O)cc1O?
**A.** pIC50 [1]: 5.91; pIC50 [2]: 6.17; pIC50 [3]: 5.99; pIC50 [4]: 6.00; pIC50 [5]: 5.75; pIC50 [6]: 5.55; pIC50 [7]: 4.66; pIC50 [8]: 5.35; pIC50 [9]: 5.75; pIC50 [10]: 5.39; pIC50 [11]: 5.82; pIC50 [12]: 5.21; pIC50 [13]: 5.94; pIC50 [14]: 6.03; pIC50 [15]: 5.50; pIC50 [16]: 5.92

**Q.** With CCOc1c(-c2ccc(O)c(O)c2)oc2cc(O)cc(O)c2c1=O as the compound, how does the pIC50 [1] read?
**A.** < 4.30

**Q.** And the pIC50 [2]?
**A.** < 4.30

**Q.** And the pIC50 [3]?
**A.** < 4.30

**Q.** And the pIC50 [4]?
**A.** < 4.30

**Q.** And the pIC50 [5]?
**A.** 6.41

**Q.** And the pIC50 [6]?
**A.** < 4.30

**Q.** And the pIC50 [7]?
**A.** < 4.30

**Q.** What about the pIC50 [8] of the same compound?
**A.** < 4.30

**Q.** What about the pIC50 [9] of the same compound?
**A.** < 4.30

**Q.** And the pIC50 [10]?
**A.** < 4.30

**Q.** And the pIC50 [11]?
**A.** < 4.30

**Q.** And the pIC50 [12]?
**A.** < 4.30

**Q.** What about the pIC50 [13] of the same compound?
**A.** < 4.30

**Q.** What about the pIC50 [14] of the same compound?
**A.** < 4.30

**Q.** And the pIC50 [15]?
**A.** < 4.30

**Q.** And the pIC50 [16]?
**A.** < 4.30

**Q.** With CCOc1cc(O)c2c(=O)c(OCC)c(-c3ccc(OCC)c(O)c3)oc2c1 as the compound, how does the pIC50 [1] read?
**A.** 4.65

**Q.** What about the pIC50 [2] of the same compound?
**A.** < 4.30

**Q.** And the pIC50 [3]?
**A.** 4.81

**Q.** And the pIC50 [4]?
**A.** < 4.30

**Q.** What about the pIC50 [5] of the same compound?
**A.** 5.33

**Q.** And the pIC50 [6]?
**A.** < 4.30

**Q.** What about the pIC50 [7] of the same compound?
**A.** < 4.30

**Q.** What about the pIC50 [8] of the same compound?
**A.** 4.44

**Q.** And the pIC50 [9]?
**A.** 4.31

**Q.** And the pIC50 [10]?
**A.** < 4.30

**Q.** What about the pIC50 [11] of the same compound?
**A.** < 4.30

**Q.** And the pIC50 [12]?
**A.** 4.75

**Q.** And the pIC50 [13]?
**A.** < 4.30

**Q.** And the pIC50 [14]?
**A.** < 4.30

**Q.** What about the pIC50 [15] of the same compound?
**A.** 5.18

**Q.** And the pIC50 [16]?
**A.** 4.84

**Q.** What does the source list for COc1cc(O)c2c(=O)c(OC)c(-c3ccc(OC)c(OC)c3)oc2c1 [RETUSIN]?
**A.** pIC50 [1]: < 4.30; pIC50 [2]: < 4.30; pIC50 [3]: < 4.30; pIC50 [4]: < 4.30; pIC50 [5]: < 4.30; pIC50 [6]: < 4.30; pIC50 [7]: < 4.30; pIC50 [8]: < 4.30; pIC50 [9]: 4.98; pIC50 [10]: < 4.30; pIC50 [11]: 5.19; pIC50 [12]: < 4.30; pIC50 [13]: 6.41; pIC50 [14]: 6.42; pIC50 [15]: < 4.30; pIC50 [16]: 4.33
